Data reported in patent US8021672B2, “Development of a Chlamydia sp. vaccine strain” (priority 2006, dated 2011).

Assays:
McCoy cells = assay: Iodine staining of Chlamydia-infected cells for glycogen accumulation; type: cell-based; details: Nigg-infected McCoy monolayers, 62.5 μg ml^−1
Source text: Iodine staining of Chlamydia-infected cells. McCoy cells cultured on glass cover slips were infected as described above. At the desired point in the infection the culture medium was removed and the monolayer rinsed several times with 1×HBSS before being fixed and stained with iodine (Schachter J & Dawson, 1978) in order to detect the presence of accumulated glycogen. Stained cells were immediately photographed using a digital camera system and SPOT version 4.0.6 software from Diagnostic Instruments Inc. (Sterling Heights, Mich.).
Plasmid-deficient C. muridarum fail to accumulate glycogen within inclusions.

plasmid = details: 20 μg ml^−1 in conjunction with imipramine; cited from earlier work
C. muridarum strain Nigg = assay: Effect of novobiocin treatment on replication of Chlamydiae (titration by plaque assay); type: cell-based; details: novobiocin 62.5 μg ml^−1 added 4 hours post infection
Source text: FIG. 1. Effect of novobiocin treatment on replication of C. muridarum strain Nigg. The novobiocin-treated Chlamydiae were harvested and plated by centrifugation to generate individual plaques for titration. The relative infectious yield of strain Nigg at each novobiocin concentration was derived by normalizing the total infectious yield per treated population against the yield from the untreated control. The graph is drawn from a single representative experiment with each point assayed in duplicate.
Cell culture media and reagents were purchased from Mediatech (Hearndon, Va.). Wells containing confluent monolayers of McCoy cells were infected at an approximate MOI of 0.5-1, before being centrifuged for 1 hour at 37° C. The infective inoculum was then removed and replaced with 1× Dulbecco's modified Eagle's medium (DMEM) supplemented with 10% heat-inactivated FBS, gentamicin (20 μg ml^−1) and 0.1 μg ml^−1 cycloheximide. We have previously determined that concentrations in excess of 250 μg ml^−1 are cytotoxic for uninfected McCoy cells. Novobiocin (Sigma, St. Louis, Mo.) was added at the indicated concentrations (up to 250 μg ml^−1) at 4 hours post infection. Infected cells were incubated at 37° C., 5% CO2 for a further 36 hours. […]
Effect of novobiocin treatment on replication of Chlamydiae. […] The titers of novobiocin-treated bacteria were measured by plaque assays (FIG. 1). […]

uninfected McCoy cells = assay: Cytotoxicity of novobiocin for uninfected host cells; type: cell-based
Method: Cell culture media and reagents were purchased from Mediatech (Hearndon, Va.). Wells containing confluent monolayers of McCoy cells were infected at an approximate MOI of 0.5-1, before being centrifuged for 1 hour at 37° C. The infective inoculum was then removed and replaced with 1× Dulbecco's modified Eagle's medium (DMEM) supplemented with 10% heat-inactivated FBS, gentamicin (20 μg ml^−1) and 0.1 μg ml^−1 cycloheximide. We have previously determined that concentrations in excess of 250 μg ml^−1 are cytotoxic for uninfected McCoy cells. Novobiocin (Sigma, St. Louis, Mo.) was added at the indicated concentrations (up to 250 μg ml^−1) at 4 hours post infection. Infected cells were incubated at 37° C., 5% CO2 for a further 36 hours. Infected cells were harvested into SPG buffer (218 mM sucrose, 3.8 mM KH2PO4, 7.2 mM K2HPO4, 4.9 mM L-glutamate, pH 7.2) at 40 hours post infection, sonicated, and stored at −80° C. Bacteria were subsequently titrated by plaque assay or as inclusion forming units (IFU) using a genus-specific fluorescently tagged monoclonal antibody (Biorad, Hercules, Calif.).

CO[C@@H]1[C@@H](OC(N)=O)[C@@H](O)[C@H](Oc2ccc3c(O)c(NC(=O)c4ccc(O)c(CC=C(C)C)c4)c(=O)oc3c2C)OC1(C)C [novobiocin]
iodine staining of inclusions under novobiocin treatment (McCoy cells): variable iodine staining of inclusions | effect on plasmid copy number (plasmid): plasmid copy number increases | reduction of relative infectious yield of bacteria (C. muridarum strain Nigg): at least 100 fold | concentrations cytotoxic for uninfected McCoy cells (uninfected McCoy cells): > 250 µg/mL
